Assays:
Type in all cases: in vivo
male mice (ICR) [1] = assay: Muscle relaxation activity by residence time on a rotarod rotating at a fixed speed; settings: intraperitoneal; for ED50: Mus musculus, ip, 15 rpm, max 10 min, ED50 vs vehicle only (100%), determined at 0.5 h (time of maximum effect)
Description: (§1) For testing, male mice (ICR) were purchased from ORIENT BIO INC. (Korea), divided into several groups with 6 mice in each group, and were adapted for 4-5 days. The mice having the weight ranging from 19 g to 26 g were employed for the test. The pharmacological effect of the test compounds on muscle relaxation was evaluated by Rotarod test, grip strength test, and muscular force (wire hang) test. All mice were adapted to the test environment at one hour before starting the tests. The pharmacological effects of all the test compounds were evaluated by administration through peritoneal cavity of the mice (10 ul/g, bw).
All the mice to be tested were preliminarily trained for 5 minutes on a rod rotating at the rate of 15 revolutions per a minute. The mice that could not remain on the rod without falling off therefrom for a minimum of 2 minutes were excluded from this testing. After the training, all the mice were allowed to rest for 45-60 minutes. Before the administration of the test compounds, the mice were subjected to a further training for one minute on the rod rotating under the same condition, where the mice falling off from the rod were excluded from this experimentation. […] In case a mouse stays on the rod until the test is finished, the time was recorded as 10 minutes. As test time for evaluation, a maximum of 10 minutes was applied. This experimentation was conducted according to the method described in the reference, ‘Yasuda et al. (2005) Antipyretic, analgesic and muscle relaxant activities of Pueraria isoflavonoids and their metabolites from Pueraria lobata Ohwi—a traditional Chinese drug. Biol. Pharm. Bull. 28: 1224-1228.
(§2) The obtained results are shown as mean±sem. The difference between the groups was statistically analyzed by ANOVA, and then, further examined by Dunnett's test or Bonferroni test. If p is less than 0.05, it was determined that the difference between the groups had statistical significance.
(§3) The results of muscle relaxation activity of the phenylalkyl sulfamate compounds measured in above Experimental Examples 1 to 43 are shown in following Table 2.

male mice (ICR) [2] = assay: Muscle relaxation activity by wire hang (wire suspension) test; settings: intraperitoneal; for Wire suspension, percentage compared to the vehicle only (100%): dose 100 (unit not given); for ED50: Mus musculus, ip, ED50 vs vehicle only (100%)
Description: as §1
This experimentation was conducted using a metal wire of 30 cm in length, which was suspended between two pillars at a height of about 40 cm from the bottom covered with a soft pad. […] Each mouse was made to grip the wire using two forelimbs, and the elapse time before the mouse fell off from the wire to the pad on the bottom was recorded in seconds. Each mouse was given 5 opportunities for this test at an interval of 2 minutes period. The highest 3 records among the test opportunities were selected and the mean value was used as the test result. This experimentation was conducted according to the method described in the reference, ‘Jacqueline N. Crawley (1999) Behavioral phenotyping of transgenic and knockout mice: experimental design and evaluation of general health, sensory functions, motor abilities, and specific behavioral tests. Brain Res. 835: 18-26’.
as §2, §3

male mice (ICR) [3] = assay: Muscle relaxation activity by grip strength test (forelimbs); settings: intraperitoneal; for Grip strength, percentage compared to the vehicle only (100%): dose 200 (unit not given); for ED50: Mus musculus, ip
Description: as §1
The test was conducted before and after administration of the compounds to evaluate the effects thereof. […] The mouse was made to grip the rod with its forelimbs, and its tail was pulled, where the force at which the mouse detached from the rod was recorded. The instrument indicated the force in grams. All of the mice were given 3 opportunities for test, and the 3 highest values among the test opportunities were selected and the mean value was used as the test result. […] Psychopharmacol. 110: 92-96’.
as §2

[4] = determined at 0.5 h (time of maximum effect)
[5] = ED50 = 50% of muscle relaxation activity compared to vehicle only (100%), determined at 0.5 h (time of maximum effect)

CC1(C)O[C@H](c2ccccc2F)[C@@H](COS(N)(=O)=O)O1 [Example 15, ((4R,5R)-5-(2-fluorophenyl)-2,2-dimethyl-1,3-dioxolan-4-yl)methyl sulfamate]
Fixed rotarod, percentage of residence time compared to the vehicle only (100%) (male mice (ICR) [1]; dose 140 (unit not given)): 140(22.7%)

CC1O[C@@H](COS(N)(=O)=O)[C@H](c2ccccc2Cl)O1 (stereo partly drawn) [Example 6, ((4S,5S)-5-(2-chlorophenyl)-2-methyl-1,3-dioxolan-4-yl)methyl sulfamate]
Wire suspension, percentage compared to the vehicle only (100%) (male mice (ICR) [2]): 100 (70.0%)
Grip strength, percentage compared to the vehicle only (100%) (male mice (ICR) [3]): 200 (44.8%)
Fixed rotarod, percentage of residence time compared to the vehicle only (100%) (male mice (ICR) [1]; dose 100 (unit not given)): 100 (50.4%)

CC1(C)OC(COS(N)(=O)=O)C(c2ccccc2Cl)O1 (centres unmarked) [Example 3, (5-(2-chlorophenyl)-2,2-dimethyl-1,3-dioxolan-4-yl)methyl sulfamate]
ED50 (male mice (ICR) [2]; determined at 1 h (time of maximum effect)): 116 mg/kg
ED50 (male mice (ICR) [3]; ED50 vs vehicle only (100%), determined at 0.25 h (time of maximum effect)): 205 mg/kg
ED50 (male mice (ICR) [1]): 99.2 mg/kg

CC1(C)O[C@@H](COS(N)(=O)=O)[C@H](c2ccccc2F)O1 [Example 16, ((4S,5S)-5-(2-fluorophenyl)-2,2-dimethyl-1,3-dioxolan-4-yl)methyl sulfamate]
ED50 (male mice (ICR) [2]; [4]): 99.1 mg/kg
ED50 (male mice (ICR) [3]; [5]): 161 mg/kg

CC1(C)O[C@H](c2ccccc2Cl)[C@@H](COS(N)(=O)=O)O1 [Example 1, ((4R,5R)-5-(2-chlorophenyl)-2,2-dimethyl-1,3-dioxolan-4-yl)methyl sulfamate]
ED50 (male mice (ICR) [2]; [4]): 96.7 mg/kg
ED50 (male mice (ICR) [3]; [5]): 212 mg/kg
ED50 (male mice (ICR) [1]): 108 mg/kg

CC1(C)O[C@@H](COS(N)(=O)=O)[C@H](c2ccc(Cl)cc2Cl)O1 [Example 40, ((4S,5S)-5-(2,4-dichlorophenyl)-2,2-dimethyl-1,3-dioxolan-4-yl)methyl sulfamate]
Grip strength, percentage compared to the vehicle only (100%) (male mice (ICR) [3]): 200 (79.3%)

CCC1(CC)O[C@@H](COS(N)(=O)=O)[C@H](c2ccccc2Cl)O1 [Example 8, ((4S,4S)-5-(2-chlorophenyl)-2,2-diethyl-1,3-dioxolan-4-yl)methyl sulfamate]
Grip strength, percentage compared to the vehicle only (100%) (male mice (ICR) [3]): 200 (59.6%)

CCC1(CC)O[C@@H](COS(N)(=O)=O)[C@H](c2ccccc2N)O1 [Example 70, ((4S,5S)-5-(2-aminophenyl)-2,2-diethyl-1,3-dioxolan-4-yl)methyl sulfamate]
Grip strength, percentage compared to the vehicle only (100%) (male mice (ICR) [3]): 200 (78.6%)

CC1(C)O[C@H](COS(N)(=O)=O)[C@@H](Cc2ccccc2)O1 [Example 122, ((4R,5R)-5-benzyl-2,2-dimethyl-1,3-dioxolan-4-yl)methyl sulfamate]
Grip strength, percentage compared to the vehicle only (100%) (male mice (ICR) [3]): 200 (61.6%)

CC1(C)O[C@@H](COS(N)(=O)=O)[C@H](c2ccccc2I)O1 [Example 28, ((4S,5S)-5-(2-iodophenyl)-2,2-dimethyl-1,3-dioxolan-4-yl)methyl sulfamate]
Wire suspension, percentage compared to the vehicle only (100%) (male mice (ICR) [2]): 100(66.8%)
ED50 (male mice (ICR) [3]; [5]): 261 mg/kg
ED50 (male mice (ICR) [1]): 102 mg/kg

CC1(C)O[C@@H](COS(N)(=O)=O)[C@H](c2ccccc2Cl)O1 [Example 2, ((4S,5S)-5-(2-chlorophenyl)-2,2-dimethyl-1,3-dioxolan-4-yl)methyl sulfamate]
ED50 (male mice (ICR) [2]; [4]): 81.4 mg/kg
ED50 (male mice (ICR) [3]; [5]): 211 mg/kg
ED50 (male mice (ICR) [1]): 73.6 mg/kg

CC1(C)OC(COS(N)(=O)=O)C(c2ccccc2Cl)O1 (centres unmarked) [Example 4, (5-(2-chlorophenyl)-2,2-dimethyl-1,3-dioxolan-4-yl)methyl sulfamate]
Wire suspension, percentage compared to the vehicle only (100%) (male mice (ICR) [2]): 100 (41.3%)
Grip strength, percentage compared to the vehicle only (100%) (male mice (ICR) [3]): 200 (56.5%)
Fixed rotarod, percentage of residence time compared to the vehicle only (100%) (male mice (ICR) [1]; dose 100 (unit not given)): 100 (76.6%)

CCC1(CC)O[C@@H](COS(N)(=O)=O)[C@H](c2ccccc2)O1 [Example 108, ((4S,5S)-5-phenyl-2,2-diethyl-1,3-dioxolan-4-yl)methyl sulfamate]
Grip strength, percentage compared to the vehicle only (100%) (male mice (ICR) [3]): 200 (66.8%)
